Experimental data reported in ChEMBL document CHEMBL1201862, “PubChem BioAssay data set” (2004).
One block for each compound: values may come before it. Active and inactive are the calls of the source.

Columns and labels:
Leucine aminopeptidase = target: T1, Leucine aminopeptidase (Plasmodium falciparum 3D7, UniProt Q8IL11); assay: P. falciparum M17LAP inhibitors, primary screen, biochemical, fluorogenic H-Leu-NHMec substrate, 1536-well (AID 1619); type: functional
T1 sequence (Q8IL11 whole entry): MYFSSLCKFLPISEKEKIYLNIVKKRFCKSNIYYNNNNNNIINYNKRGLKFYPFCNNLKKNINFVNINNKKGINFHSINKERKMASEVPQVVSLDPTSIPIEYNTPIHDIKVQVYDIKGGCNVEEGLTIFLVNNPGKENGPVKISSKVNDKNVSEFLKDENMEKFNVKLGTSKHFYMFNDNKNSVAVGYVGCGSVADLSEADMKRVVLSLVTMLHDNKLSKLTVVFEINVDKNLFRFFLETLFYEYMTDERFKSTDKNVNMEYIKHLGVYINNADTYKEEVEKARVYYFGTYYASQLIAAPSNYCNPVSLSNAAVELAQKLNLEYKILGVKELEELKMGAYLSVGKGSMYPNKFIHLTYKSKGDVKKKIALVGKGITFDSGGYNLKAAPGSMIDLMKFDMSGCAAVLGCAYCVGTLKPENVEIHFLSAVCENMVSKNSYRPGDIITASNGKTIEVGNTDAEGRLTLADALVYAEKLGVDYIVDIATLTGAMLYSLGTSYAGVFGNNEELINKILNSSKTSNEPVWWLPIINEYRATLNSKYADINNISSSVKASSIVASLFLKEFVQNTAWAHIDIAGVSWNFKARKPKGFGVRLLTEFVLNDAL

Cytochrome P450 2C19 = Cytochrome P450 2C19 (Homo sapiens, UniProt P33261); assay: Cytochrome panel assay with activity outcomes. Panel member name: p450-cyp2c19 Compounds with AC50 equal or less than 10 uM are considered active; type: functional; conditions: read-out: AC50
Sequence of Cytochrome P450 2C19 (P33261 whole entry): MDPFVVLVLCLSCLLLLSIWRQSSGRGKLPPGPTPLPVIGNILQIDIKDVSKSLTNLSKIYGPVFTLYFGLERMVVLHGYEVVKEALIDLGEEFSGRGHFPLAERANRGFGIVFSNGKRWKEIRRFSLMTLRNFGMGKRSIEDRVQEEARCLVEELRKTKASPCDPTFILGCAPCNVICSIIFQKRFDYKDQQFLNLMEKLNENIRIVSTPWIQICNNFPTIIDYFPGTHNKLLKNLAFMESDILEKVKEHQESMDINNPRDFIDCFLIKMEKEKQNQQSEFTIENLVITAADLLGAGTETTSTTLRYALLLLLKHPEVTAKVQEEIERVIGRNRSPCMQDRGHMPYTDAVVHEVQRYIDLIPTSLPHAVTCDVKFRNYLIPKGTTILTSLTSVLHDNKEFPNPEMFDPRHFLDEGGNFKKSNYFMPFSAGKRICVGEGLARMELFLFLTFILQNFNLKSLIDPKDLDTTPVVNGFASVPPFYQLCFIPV

Cytochrome P450 1A2 = target: T2, Cytochrome P450 1A2 (Homo sapiens, UniProt P05177);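 also: PubChem cytochrome P450 panel assay, CYP1A2 panel member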
T2 sequence (P05177 whole entry): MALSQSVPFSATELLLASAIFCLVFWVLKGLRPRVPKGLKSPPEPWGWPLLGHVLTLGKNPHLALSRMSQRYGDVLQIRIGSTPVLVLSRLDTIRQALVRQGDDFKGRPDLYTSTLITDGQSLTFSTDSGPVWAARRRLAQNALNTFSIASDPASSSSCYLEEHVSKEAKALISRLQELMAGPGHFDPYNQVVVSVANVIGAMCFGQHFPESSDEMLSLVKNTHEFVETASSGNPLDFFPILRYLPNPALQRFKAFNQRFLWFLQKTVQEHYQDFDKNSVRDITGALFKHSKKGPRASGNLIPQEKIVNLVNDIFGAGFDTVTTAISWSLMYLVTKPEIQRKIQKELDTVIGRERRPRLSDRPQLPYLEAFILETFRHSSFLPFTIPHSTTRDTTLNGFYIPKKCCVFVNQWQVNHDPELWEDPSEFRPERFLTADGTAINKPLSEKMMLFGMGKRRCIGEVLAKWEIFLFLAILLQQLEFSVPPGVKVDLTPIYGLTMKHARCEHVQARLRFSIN

Cytochrome P450 2C9 = Cytochrome P450 2C9 (Homo sapiens, UniProt P11712)
Sequence of Cytochrome P450 2C9 (P11712 whole entry): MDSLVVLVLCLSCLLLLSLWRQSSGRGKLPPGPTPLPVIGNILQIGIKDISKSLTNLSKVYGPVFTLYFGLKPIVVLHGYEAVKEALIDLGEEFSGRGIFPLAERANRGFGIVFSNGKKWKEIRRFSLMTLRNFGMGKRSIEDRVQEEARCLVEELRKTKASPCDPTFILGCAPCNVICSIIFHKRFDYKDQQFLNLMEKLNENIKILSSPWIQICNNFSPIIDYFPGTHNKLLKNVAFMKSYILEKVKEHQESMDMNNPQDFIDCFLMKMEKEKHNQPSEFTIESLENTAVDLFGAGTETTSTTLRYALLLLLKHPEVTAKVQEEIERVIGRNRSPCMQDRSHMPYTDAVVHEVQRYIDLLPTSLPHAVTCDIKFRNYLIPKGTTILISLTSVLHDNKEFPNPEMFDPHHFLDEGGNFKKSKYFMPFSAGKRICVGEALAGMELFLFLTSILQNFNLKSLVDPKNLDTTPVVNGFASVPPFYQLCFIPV

[1] = target: T3, Short transient receptor potential channel 4 (Mus musculus, UniProt Q9QUQ5); assay: mouse TRPC4 channel activators, dose response, cell-based, HEK293 TRPC4/mu-opioid, Fluo-4 calcium (AID 434937); type: functional
T3 sequence (Q9QUQ5 whole entry): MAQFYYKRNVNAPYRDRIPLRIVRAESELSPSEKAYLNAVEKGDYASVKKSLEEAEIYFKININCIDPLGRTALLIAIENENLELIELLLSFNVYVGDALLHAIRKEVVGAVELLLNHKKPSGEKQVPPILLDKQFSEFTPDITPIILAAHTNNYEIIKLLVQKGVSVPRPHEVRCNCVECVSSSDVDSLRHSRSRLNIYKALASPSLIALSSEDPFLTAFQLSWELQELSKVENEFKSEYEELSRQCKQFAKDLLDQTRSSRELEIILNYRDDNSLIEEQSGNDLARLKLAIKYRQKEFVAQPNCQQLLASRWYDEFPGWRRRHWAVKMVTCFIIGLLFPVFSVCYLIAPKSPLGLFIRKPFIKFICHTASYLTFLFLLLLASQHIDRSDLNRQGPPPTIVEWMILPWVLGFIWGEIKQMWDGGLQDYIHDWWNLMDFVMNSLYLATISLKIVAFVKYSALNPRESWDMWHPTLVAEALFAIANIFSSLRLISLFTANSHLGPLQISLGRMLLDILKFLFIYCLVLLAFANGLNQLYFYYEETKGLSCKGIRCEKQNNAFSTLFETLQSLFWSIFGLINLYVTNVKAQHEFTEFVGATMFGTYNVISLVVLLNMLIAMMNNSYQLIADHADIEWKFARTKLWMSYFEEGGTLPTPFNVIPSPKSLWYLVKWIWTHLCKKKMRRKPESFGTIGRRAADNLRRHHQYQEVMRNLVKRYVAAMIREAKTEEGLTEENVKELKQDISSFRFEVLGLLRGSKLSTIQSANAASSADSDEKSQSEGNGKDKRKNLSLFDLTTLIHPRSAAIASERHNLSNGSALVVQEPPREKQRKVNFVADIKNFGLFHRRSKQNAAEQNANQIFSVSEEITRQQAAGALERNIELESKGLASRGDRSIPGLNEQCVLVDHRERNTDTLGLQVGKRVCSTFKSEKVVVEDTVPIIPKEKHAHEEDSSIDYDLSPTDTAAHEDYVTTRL

[2] = target: Delta-type opioid receptor (Homo sapiens, UniProt P41143); assay: Counterscreen for agonists of heterodimerization of the mu 1 (OPRM1) and delta 1 (OPRD1) opioid receptors: Luminescence-based cell-based high throughput dose response assay to identify agonists of OPRD1 homodimerization. [Related pubchem assays (depositor defined):AID504326, AID504355, AID504692, AID504904, AID504905]; type: functional
Sequence of Delta-type opioid receptor (P41143 whole entry): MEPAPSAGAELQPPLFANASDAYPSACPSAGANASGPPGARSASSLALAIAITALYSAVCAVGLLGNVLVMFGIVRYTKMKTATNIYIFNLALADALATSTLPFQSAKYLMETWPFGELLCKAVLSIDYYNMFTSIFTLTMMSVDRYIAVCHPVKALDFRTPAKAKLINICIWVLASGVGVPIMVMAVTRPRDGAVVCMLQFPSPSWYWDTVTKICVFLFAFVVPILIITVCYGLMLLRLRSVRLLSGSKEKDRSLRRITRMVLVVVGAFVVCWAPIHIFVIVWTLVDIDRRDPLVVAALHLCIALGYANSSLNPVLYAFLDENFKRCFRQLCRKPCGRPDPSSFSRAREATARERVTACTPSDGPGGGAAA

Mu-type opioid receptor = Mu-type opioid receptor (Homo sapiens, UniProt P35372); assay: Counterscreen for agonists of heterodimerization of the mu 1 (OPRM1) and delta 1 (OPRD1) opioid receptors: Luminescence-based cell-based high throughput dose response assay to identify agonists of OPRM1 homodimerization.; type: functional;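 also: U2OS cells expressing OPRM1 and beta-arrestin as split beta-galactosidase partners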
Sequence of Mu-type opioid receptor (P35372 whole entry): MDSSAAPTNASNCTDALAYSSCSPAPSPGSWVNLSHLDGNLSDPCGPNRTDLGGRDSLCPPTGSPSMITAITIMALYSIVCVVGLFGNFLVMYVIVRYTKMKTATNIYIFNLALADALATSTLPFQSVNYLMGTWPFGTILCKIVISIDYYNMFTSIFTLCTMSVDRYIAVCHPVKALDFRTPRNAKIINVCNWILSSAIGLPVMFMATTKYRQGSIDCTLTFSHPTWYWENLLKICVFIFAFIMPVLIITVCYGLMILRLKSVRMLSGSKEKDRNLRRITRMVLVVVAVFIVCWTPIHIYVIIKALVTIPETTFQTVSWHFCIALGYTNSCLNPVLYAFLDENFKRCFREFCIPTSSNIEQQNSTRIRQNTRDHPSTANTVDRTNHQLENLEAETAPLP

[3] = target: 5-hydroxytryptamine receptor 5A (Homo sapiens, UniProt P47898); assay: Counterscreen for agonists of OPRM1-OPRD1 heterodimerization: luminescence-based cell-based high throughput dose response assay to identify agonists of 5-hydroxytryptamine (serotonin) 5A receptor (HTR5A). [Related pubchem assays (depositor defined):AID504326, AID504355, AID504692, AID504904, AID504905]; type: functional
Sequence of 5-hydroxytryptamine receptor 5A (P47898 whole entry): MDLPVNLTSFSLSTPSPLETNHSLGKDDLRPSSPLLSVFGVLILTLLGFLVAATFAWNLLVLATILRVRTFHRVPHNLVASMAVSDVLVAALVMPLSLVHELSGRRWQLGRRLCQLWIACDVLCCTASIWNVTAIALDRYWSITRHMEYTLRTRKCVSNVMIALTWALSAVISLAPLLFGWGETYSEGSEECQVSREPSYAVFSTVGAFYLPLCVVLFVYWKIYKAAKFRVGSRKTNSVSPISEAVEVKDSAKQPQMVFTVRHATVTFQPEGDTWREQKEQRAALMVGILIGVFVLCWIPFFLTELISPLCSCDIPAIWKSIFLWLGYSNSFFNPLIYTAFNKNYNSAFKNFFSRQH

[4] = target: T4, DNA repair protein RAD52 homolog (Homo sapiens, UniProt P43351); type: functional, biochemical
T4 sequence (P43351 whole entry): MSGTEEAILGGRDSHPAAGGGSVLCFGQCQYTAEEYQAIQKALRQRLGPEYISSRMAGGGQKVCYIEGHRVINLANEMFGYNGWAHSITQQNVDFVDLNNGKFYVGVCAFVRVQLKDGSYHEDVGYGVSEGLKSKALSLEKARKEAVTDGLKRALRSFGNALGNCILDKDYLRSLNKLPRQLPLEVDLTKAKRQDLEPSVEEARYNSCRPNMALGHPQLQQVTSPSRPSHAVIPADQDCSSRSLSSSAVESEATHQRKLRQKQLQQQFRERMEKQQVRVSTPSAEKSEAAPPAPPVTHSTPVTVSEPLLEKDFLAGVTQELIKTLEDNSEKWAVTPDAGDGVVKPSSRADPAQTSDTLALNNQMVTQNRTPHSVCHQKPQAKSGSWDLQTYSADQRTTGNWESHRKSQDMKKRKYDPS

[5] = target: Alkaline phosphatase, placental type (Homo sapiens, UniProt P05187); assay: PLAP enzyme inhibitors, confirmation, biochemical, luminescence (AID 1512); type: functional
Sequence of Alkaline phosphatase, placental type (P05187 whole entry): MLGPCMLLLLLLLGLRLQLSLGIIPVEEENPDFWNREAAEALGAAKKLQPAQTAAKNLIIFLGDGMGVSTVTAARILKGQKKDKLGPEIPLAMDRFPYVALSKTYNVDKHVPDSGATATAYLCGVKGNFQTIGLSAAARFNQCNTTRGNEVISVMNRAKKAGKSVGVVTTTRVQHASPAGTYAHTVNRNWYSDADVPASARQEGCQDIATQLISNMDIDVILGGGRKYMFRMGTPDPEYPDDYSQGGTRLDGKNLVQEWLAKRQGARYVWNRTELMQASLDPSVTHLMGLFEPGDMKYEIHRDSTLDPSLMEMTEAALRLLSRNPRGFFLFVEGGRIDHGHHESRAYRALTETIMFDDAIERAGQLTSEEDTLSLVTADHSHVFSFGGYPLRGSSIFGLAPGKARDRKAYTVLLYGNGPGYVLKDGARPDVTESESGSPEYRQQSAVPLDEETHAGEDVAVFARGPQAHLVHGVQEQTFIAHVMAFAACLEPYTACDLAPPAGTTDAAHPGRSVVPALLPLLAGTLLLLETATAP

Paired box protein Pax-8 = Paired box protein Pax-8 (Homo sapiens, UniProt Q06710); assay: inhibitors of PAX8-driven TPO luciferase reporter, dose response, RMG-I cells, cherry-pick (AID 687027); type: functional, cell-based;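 also: luciferase reporter driven by Pax8 target thyroperoxidase promoter measured by SteadyGlo luminescence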
Sequence of Paired box protein Pax-8 (Q06710 whole entry): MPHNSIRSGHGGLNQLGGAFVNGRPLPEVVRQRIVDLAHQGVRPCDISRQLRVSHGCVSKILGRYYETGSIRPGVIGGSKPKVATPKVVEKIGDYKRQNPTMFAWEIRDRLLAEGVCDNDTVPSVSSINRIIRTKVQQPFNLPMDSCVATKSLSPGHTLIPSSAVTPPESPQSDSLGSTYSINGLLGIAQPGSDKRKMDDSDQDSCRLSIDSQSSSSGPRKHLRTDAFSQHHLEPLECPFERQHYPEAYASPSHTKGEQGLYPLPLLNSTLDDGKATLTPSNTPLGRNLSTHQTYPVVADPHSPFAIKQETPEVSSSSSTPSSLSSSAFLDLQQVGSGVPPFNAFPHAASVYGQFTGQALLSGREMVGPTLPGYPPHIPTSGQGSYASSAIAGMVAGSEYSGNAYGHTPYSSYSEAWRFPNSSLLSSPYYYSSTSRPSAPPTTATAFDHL

[6] = IGROV1 ovarian cancer cell cytotoxicity, dose response, PAX8 inhibitor project, plate reader, dry powder samples (AID 743043); type: functional, cell-based; conditions: IGROV-1

IC50 (Leucine aminopeptidase): 40.7 µM (active) | AC50 (Cytochrome P450 2C19): 20 µM (inconclusive) | AC50 (Cytochrome P450 1A2): 15.8 µM (inconclusive) | AC50 (Cytochrome P450 2C9): 12.6 µM (inconclusive)
Compound: Cc1ccc(N(CC(N)=O)C2SC(=O)N(Cc3cccc(C(=O)O)c3)C2=O)cc1 (stereo unspecified)

IC50 (Leucine aminopeptidase): 18.2 µM (active)
Compound: Cc1cc(C(=O)COC(=O)c2ccc[nH]c2=O)c(C)n1CCc1ccc(F)cc1

EC50 [1]: 0.841 µM (active) | EC50 [2]: > 92.5 µM (inactive) | EC50 (Mu-type opioid receptor): > 92.5 µM (inactive) | EC50 [3]: > 92.5 µM (inactive) | AC50 [4]: 9.06 µM (active)
Compound: CC1CN(C)C(C)c2c1oc1ccc(N)cc21 (stereo unspecified)

IC50 (Leucine aminopeptidase): 2.52 µM (active)
Compound: CCOc1ccc(NC(=O)CSc2nnc(N)s2)c([N+](=O)[O-])c1

IC50 (Leucine aminopeptidase): 62.2 µM (active)
Compound: CCOC(=O)C(CSCC(=O)c1ccc(Br)cc1)NC(=O)OC(C)(C)C (stereo unspecified)

IC50 [5]: > 100 µM (inactive)
Compound: Cc1ccc(-n2ncc3c(NNC(=O)c4ccco4)ncnc32)c(C)c1

AC50 [4]: 28.7 µM (active)
Compound: C[C@@H]1ON(C)[C@H]2C[C@H]3c4cc(-c5cc6ccccc6o5)ccc4CCN3C[C@@H]12

Compound: C[C@H](CO)N1C[C@H](C)[C@H](CN(C)S(=O)(=O)c2ccc(F)cc2)OCCCC[C@H](C)Oc2ccc(NS(=O)(=O)c3ccc(Cl)cc3)cc2C1=O
AC50 (Paired box protein Pax-8): 10.1 µM (active) | AC50 [6]: 54.7 µM (active)
